Results as given in the NIST ThermoML archive (doi:10.1021/je0302304).

Assay: refractive index (Na D-line) (dimensionless); xn = mol fraction of the nth substance listed
Conditions: 101.32 kPa, Liquid, Standard Abbe refractometry

COCCOC [1,2-dimethoxyethane] + CCO
refractive index
Conditions | 288.15 K | 298.15 K | 308.15 K | 318.15 K
x1 = 0.0045 | 1.3633 | 1.3592 | 1.3552 | 1.351
x1 = 0.0086 | 1.3634 | 1.3593 | 1.3553 | 1.3511
x1 = 0.0125 | 1.3635 | 1.3594 | 1.3554 | 1.3512
x1 = 0.0165 | 1.3636 | 1.3596 | 1.3555 | 1.3513
x1 = 0.0205 | 1.3638 | 1.3597 | 1.3557 | 1.3515
x1 = 0.0305 | 1.3642 | 1.3601 | 1.356 | 1.3518
x1 = 0.05 | 1.3649 | 1.3608 | 1.3566 | 1.3524
x1 = 0.1 | 1.3666 | 1.3624 | 1.3582 | 1.3539
x1 = 0.15 | 1.3681 | 1.3639 | 1.3596 | 1.3552
x1 = 0.2 | 1.3695 | 1.3652 | 1.3609 | 1.3565
x1 = 0.25 | 1.3709 | 1.3664 | 1.3621 | 1.3576
x1 = 0.3 | 1.3721 | 1.3676 | 1.3631 | 1.3586
x1 = 0.35 | 1.3732 | 1.3686 | 1.3641 | 1.3596
x1 = 0.4 | 1.3742 | 1.3696 | 1.3651 | 1.3605
x1 = 0.45 | 1.3751 | 1.3705 | 1.3659 | 1.3613
x1 = 0.5 | 1.376 | 1.3714 | 1.3667 | 1.362
x1 = 0.55 | 1.3768 | 1.3722 | 1.3675 | 1.3628
x1 = 0.6 | 1.3776 | 1.3729 | 1.3682 | 1.3634
x1 = 0.6499 | 1.3783 | 1.3736 | 1.3688 | 1.364
x1 = 0.7 | 1.379 | 1.3742 | 1.3694 | 1.3646
x1 = 0.7499 | 1.3796 | 1.3748 | 1.37 | 1.3652
x1 = 0.7999 | 1.3802 | 1.3754 | 1.3705 | 1.3657
x1 = 0.85 | 1.3808 | 1.3759 | 1.371 | 1.3661
x1 = 0.9 | 1.3813 | 1.3764 | 1.3715 | 1.3666
x1 = 0.9499 | 1.3818 | 1.3768 | 1.3719 | 1.3669
x1 = 1 | 1.3824 | 1.3772 | 1.3722 | 1.3672

COCCOCCOCCOCCOC [2,5,8,11,14-pentaoxapentadecane] + CCO
refractive index
Conditions | 288.15 K | 298.15 K | 308.15 K | 318.15 K
x1 = 0.0045 | 1.3644 | 1.3604 | 1.3564 | 1.3522
x1 = 0.0085 | 1.3656 | 1.3615 | 1.3575 | 1.3533
x1 = 0.0125 | 1.3667 | 1.3627 | 1.3586 | 1.3545
x1 = 0.0165 | 1.3678 | 1.3638 | 1.3598 | 1.3556
x1 = 0.0205 | 1.3689 | 1.3649 | 1.3608 | 1.3567
x1 = 0.0305 | 1.3714 | 1.3674 | 1.3634 | 1.3593
x1 = 0.05 | 1.376 | 1.372 | 1.368 | 1.3641
x1 = 0.1 | 1.3858 | 1.3819 | 1.3779 | 1.3741
x1 = 0.15 | 1.3936 | 1.3897 | 1.3857 | 1.3818
x1 = 0.2 | 1.3999 | 1.396 | 1.392 | 1.3881
x1 = 0.25 | 1.405 | 1.4011 | 1.3971 | 1.3931
x1 = 0.3 | 1.4093 | 1.4053 | 1.4013 | 1.3973
x1 = 0.35 | 1.4129 | 1.4089 | 1.4049 | 1.4009
x1 = 0.4 | 1.4159 | 1.412 | 1.408 | 1.404
x1 = 0.45 | 1.4186 | 1.4146 | 1.4106 | 1.4067
x1 = 0.5 | 1.4209 | 1.417 | 1.413 | 1.409
x1 = 0.55 | 1.423 | 1.419 | 1.415 | 1.411
x1 = 0.6 | 1.4248 | 1.4208 | 1.4168 | 1.4128
x1 = 0.6499 | 1.4264 | 1.4225 | 1.4184 | 1.4144
x1 = 0.7 | 1.4279 | 1.4239 | 1.4199 | 1.4159
x1 = 0.7498 | 1.4292 | 1.4252 | 1.4212 | 1.4172
x1 = 0.7999 | 1.4304 | 1.4264 | 1.4224 | 1.4184
x1 = 0.8499 | 1.4315 | 1.4275 | 1.4234 | 1.4194
x1 = 0.8997 | 1.4326 | 1.4285 | 1.4244 | 1.4204
x1 = 0.9496 | 1.4335 | 1.4294 | 1.4253 | 1.4213
x1 = 1 | 1.4344 | 1.4303 | 1.4262 | 1.4221
